In the supplement of paper PMC10627819:

Key:
S. pneumoniae D39V [1] = test: fitness (endpoint OD595 vs no drug) (fraction); higher = more growth
In short: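 In 384-well plates at 37 °C, cultures began at OD595 0.01 in 30 µl, with 55 µl used for S. pneumoniae. OD595 readings every 30 min for 14 h were corrected by the first reading. Fitness divides the stationary-phase transition optical density by the robust mean of no-drug control wells. The result is capped at 1.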

B. subtilis 168 = test: Bliss interaction score (quartile over a dose matrix) (fitness difference); higher = more antagonism (negative = synergy)
In short: (§1)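 Fitness is OD595 at stationary-phase entry relative to the plate's robust no-drug mean, capped at 1. Single-drug fitness was inferred from combinations. The Bliss score is observed minus product-expected fitness, summarised by quartiles over technical, biological and donor/recipient replicates.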

S. aureus DSM 20231 = test: as above
In short: as §1

S. aureus Newman = test: as above
In short: as §1

S. pneumoniae D39V [2] = test: as above
In short: as §1
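Throughout, for Bliss interaction score (quartile over a dose matrix): first quartile when negative (synergy) and third quartile when positive (antagonism).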

O=C(O)c1cn(C2CC2)c2cc(N3CCNCC3)c(F)cc2c1=O [Ciprofloxacin] + CC[C@H]1OC(=O)[C@H](C)[C@@H](O[C@H]2C[C@@](C)(OC)[C@@H](O)[C@H](C)O2)[C@H](C)[C@@H](O[C@@H]2O[C@H](C)C[C@H](N(C)C)[C@H]2O)[C@](C)(OC)C[C@@H](C)C(=O)[C@H](C)[C@@H](O)[C@]1(C)O [Clarithromycin]
fitness, S. pneumoniae D39V [1], one replicate
Settings | partner 0.007812 µg/mL | partner 0.01562 µg/mL | partner 0.03125 µg/mL | partner 0.0625 µg/mL | partner 0.125 µg/mL | partner 0.25 µg/mL
first compound 0.125 µg/mL | 0.839 | 0.844 | 0.627 | – | – | –
first compound 0.25 µg/mL | 0.742 | 0.746 | 0.536 | 0.349 | 0.17 | 0.0141
first compound 0.5 µg/mL | 0.472 | 0.524 | 0.398 | – | – | –

fitness, S. pneumoniae D39V [1]
Settings | partner 0.0625 µg/mL | partner 0.07 µg/mL | partner 0.125 µg/mL | partner 0.14 µg/mL | partner 0.25 µg/mL | partner 0.28 µg/mL
first compound 0.125 µg/mL | 0.473 | 0.151 | 0.246 | 0.0833 | 0.0576 | 0.0594
first compound 0.25 µg/mL | – | 0.166 | – | 0.0864 | – | 0.0284
first compound 0.5 µg/mL | 0.374 | 0.127 | 0.191 | 0.0639 | 0.0761 | 0.0531

Settings | Bliss interaction score
B. subtilis 168 | 0.183
S. aureus DSM 20231 | 0.0952
S. aureus Newman | 0.0708
S. pneumoniae D39V [2] | -0.0773

C[C@H]1c2cccc(O)c2C(=O)C2=C(O)[C@]3(O)C(=O)C(C(N)=O)=C(O)[C@@H](N(C)C)[C@@H]3[C@@H](O)[C@@H]21 [Doxycycline] + Cn1nnc(-c2ccc(-c3ccc(N4C[C@H](CO)OC4=O)cc3F)cn2)n1 [Tedizolid]
fitness, S. pneumoniae D39V [1], one replicate
Settings | first compound 0.003875 µg/mL | first compound 0.00775 µg/mL | first compound 0.031 µg/mL | first compound 0.062 µg/mL
partner 0.125 µg/mL | 0.847 | 0.848 | – | –
partner 0.25 µg/mL | 0.765 | 0.759 | 0.709 | 0.56
partner 0.5 µg/mL | 0.411 | 0.438 | 0.301 | 0.203

fitness, S. pneumoniae D39V [1]
Settings | partner 0.03125 µg/mL | partner 0.0625 µg/mL | partner 0.125 µg/mL | partner 0.25 µg/mL | partner 0.5 µg/mL
first compound 0.0155 µg/mL | 0.91 | 0.913 | 0.832 | 0.801 | 0.456
first compound 0.031 µg/mL | 0.957 | 0.9 | 0.768 | – | –
first compound 0.062 µg/mL | 0.92 | 0.905 | 0.826 | – | –

Settings | Bliss interaction score
B. subtilis 168 | -0.0653
S. aureus DSM 20231 | -0.0283
S. aureus Newman | -0.0152
S. pneumoniae D39V [2] | 0.055

COc1cccc2c1C(=O)c1c(O)c3c(c(O)c1C2=O)C[C@@](O)(C(=O)CO)C[C@@H]3O[C@H]1C[C@H](N)[C@H](O)[C@H](C)O1 [Doxorubicin] + O=C1CN(/N=C/c2ccc([N+](=O)[O-])o2)C(=O)N1 [Nitrofurantoin]
fitness, S. pneumoniae D39V [1]
Settings | partner 1.285 µg/mL | partner 2 µg/mL | partner 2.57 µg/mL | partner 4 µg/mL | partner 8 µg/mL
first compound 0.25 µg/mL | 0.935 | 0.918 | 0.91 | 0.857 | 0.465
first compound 0.5 µg/mL | 0.925 | 0.946 | 0.94 | 0.795 | 0.436
first compound 1 µg/mL | 0.825 | 0.814 | 0.809 | 0.721 | 0.405

S. pneumoniae D39V [1], partner 5.14 µg/mL, one replicate
Settings | fitness
first compound 0.25 µg/mL | 0.822
first compound 0.5 µg/mL | 0.858
first compound 1 µg/mL | 0.695

Settings | Bliss interaction score
B. subtilis 168 | -0.221
S. aureus DSM 20231 | -0.0576
S. aureus Newman | -0.0388
S. pneumoniae D39V [2] | 0.0747

C[C@@H]1O[C@@H]1P(=O)(O)O [Fosfomycin] + Clc1ccc(COC(Cn2ccnc2)c2ccc(Cl)cc2Cl)c(Cl)c1 [Miconazole]
fitness, S. pneumoniae D39V [1]
Settings | partner 1.073 µg/mL | partner 1.25 µg/mL | partner 2.145 µg/mL | partner 2.5 µg/mL | partner 4.29 µg/mL | partner 5 µg/mL
first compound 1.25 µg/mL | 0.988 | 0.946 | 0.967 | 0.946 | 0.879 | 0.968
first compound 2.5 µg/mL | 0.926 | 0.905 | 0.879 | 0.933 | 0.789 | 0.929
first compound 5 µg/mL | 0.758 | 0.769 | 0.7 | 0.753 | 0.678 | 0.776

Settings | Bliss interaction score
B. subtilis 168 | -0.0714
S. aureus DSM 20231 | 0.0796
S. aureus Newman | 0.103
S. pneumoniae D39V [2] | 0.0499
